The source of these data is patent publication US20250368666A1, “INDAZOLE COMPOUNDS” (TYRA BIOSCIENCES, INC., priority 2022, published 2025).

Usually Kd stands for the free concentration of one partner at which half of the binding sites on the other are occupied at equilibrium, for simple one-to-one binding. What is called IC50 is the concentration at which inhibition is half-maximal. A low value points to inhibition by little substance.

In assay [1] the target is T1, FGFR1 (Homo sapiens, UniProt P11362).
T1 construct: made in house; host or cells: E. coli (BL21-derived), T7 phage
In words: Kinase binding assay (kinase-tagged T7 phage, affinity beads, qPCR), Kd. The following applies: read-out: FGFR1 (Kd nM). The essentials: (§1)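 Competition binding; kinase-tagged T7 phage lysate vs immobilised biotinylated ligand on streptavidin beads, 0.9% DMSO final. 11-pt 3-fold dilutions, 3 DMSO controls. qPCR of eluted kinase; Kd by Hill fit, slope −1.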
A general note: Real-time PCR tracks product formation cycle by cycle.

In assay [2] the target is T2, FGFR3 (Homo sapiens, UniProt P22607).
T2 construct: made in house; host or cells: E. coli (BL21-derived), T7 phage
The description is as above. As to conditions: read-out: FGFR3 (Kd nM). Summed up:
as §1

For assay [3], the system named is KATO-III cell line (FGFR2 amplification). In words: Cancer cell line cell viability assay (Cell Titer-Glo), 72 hr. It counts as cell-based. As to conditions: Homo sapiens, KATO III. The text has this:
(§2) Experimental Purpose: To detect the change of intracellular ATP by Cell Titer-Glo® and to evaluate the inhibitory effect of the compounds on cancer cell lines by determining the in vitro IC50 value of the compounds.
(§3) Cell Titer-Glo® 2.0 Luminescent cell viability assay reagent was purchased from Promega (Madison, WI). KG-1, KATO-III, and MDA-MB-453 cell lines were purchased from American Type Culture Collection (Manassas, VA). RT112/84 cell line was purchased from Millipore-Sigma (St. Louis, MO). HuH7 cells were purchased from Seikisui Xenotech (Kansas City, KS). RT112/84 and MDA-MB-453 cells were cultured in RPMI1640 media supplemented with 10% fetal bovine serum. KG-1 and KATO-III cell lines were cultured in IMDM media supplemented with 20% FBS. HuH7 cells were cultured in IMDM media supplemented with 10% FBS. Cultures were maintained at 37° C. in a humidified atmosphere of 5% CO2 and 95% air.
(§4) Cell Viability Assay Procedure: Cells were plated in 96-well clear bottom/white plates (Corning #3903) at a range of densities depending on the optimal assay window (5,000-20,000 cells/well in […] of media), incubated overnight. The next day, test compound DMSO stock solutions were made at 10 mM and […] final concentration. Compounds were then added to cells in a 9-dose, 4-fold dilution series starting at 3 μM with an HP 300e Digital Dispenser (each dose was applied in triplicate). DMSO was backfilled to each well up to 301 nL total volume of test compound+DMSO, and a total of 301 nL DMSO was added to a control/no test compound well in triplicate. The cells in cell culture plates were incubated with the compounds at 37° C. and 5% CO2 for 72 hours-120 hours depending on the cell line. Then 50 μl of Cell Titer Glo 2.0 reagent was added to each well of the cell culture plates. The contents were covered from light and mixed on an orbital shaker at room temperature for minimum of 10 min. Luminescence was recorded by a Clariostar Plus Microplate Reader (BMG Labtech, Cary, NC). Cells were assessed as a percentage of DMSO only treated control cells. Curves were plotted and IC50 values were calculated using the GraphPad Prism 9 program based on a sigmoidal dose-response equation (log (inhibitor) vs. response—Variable slope, 4-parameter).
(ATP-based viability assays read luminescence as a measure of living cells.)

Assay [4] relates to KG-1 cell line (FGFR 1-fusion). The description is as above. It counts as cell-based. As to conditions: Homo sapiens, KG-1, KG-1 cell line (FGFR1-fusion).
Text: as §2, §3, §4

The subject of assay [5] is RT112/84 cell line (FGFR3-fusion). The description is as above. As to conditions: Homo sapiens, RT112/84, RT112/84 cell line (FGFR3-fusion). It counts as cell-based.
Text: as §2, §3, §4

In assay [6] the target is T3, FGFR2 (Homo sapiens, UniProt P21802).
T3 construct: made in house; host or cells: E. coli (BL21-derived), T7 phage
In words: Kinase binding assay (kinase-tagged T7 phage, affinity beads, qPCR), Kd. The following applies: read-out: FGFR2 (Kd nM). The essentials: as §1

Assay [7] deals with T4, FGFR4 (Homo sapiens, UniProt P22455).
T4 construct: made in house; host or cells: E. coli (BL21-derived), T7 phage
The assay is described as above. As to conditions: read-out: FGFR4 (Kd nM). Summed up: as §1

Assay [8] concerns the target T5, FGFR3 (V555M) (Homo sapiens, UniProt P22607, V555M).
T5 construct: made in house; host or cells: E. coli (BL21-derived), T7 phage
The description is as above. The following applies: V555M mutant; read-out: FGFR3 (V555M) (Kd nM). Summed up: as §1

[9] abbreviates: kinase binding assay, 11-point 3-fold dilution series.

Read-outs that look alike come from different tables or passages of the source.

T2 sequence (P22607 23-806): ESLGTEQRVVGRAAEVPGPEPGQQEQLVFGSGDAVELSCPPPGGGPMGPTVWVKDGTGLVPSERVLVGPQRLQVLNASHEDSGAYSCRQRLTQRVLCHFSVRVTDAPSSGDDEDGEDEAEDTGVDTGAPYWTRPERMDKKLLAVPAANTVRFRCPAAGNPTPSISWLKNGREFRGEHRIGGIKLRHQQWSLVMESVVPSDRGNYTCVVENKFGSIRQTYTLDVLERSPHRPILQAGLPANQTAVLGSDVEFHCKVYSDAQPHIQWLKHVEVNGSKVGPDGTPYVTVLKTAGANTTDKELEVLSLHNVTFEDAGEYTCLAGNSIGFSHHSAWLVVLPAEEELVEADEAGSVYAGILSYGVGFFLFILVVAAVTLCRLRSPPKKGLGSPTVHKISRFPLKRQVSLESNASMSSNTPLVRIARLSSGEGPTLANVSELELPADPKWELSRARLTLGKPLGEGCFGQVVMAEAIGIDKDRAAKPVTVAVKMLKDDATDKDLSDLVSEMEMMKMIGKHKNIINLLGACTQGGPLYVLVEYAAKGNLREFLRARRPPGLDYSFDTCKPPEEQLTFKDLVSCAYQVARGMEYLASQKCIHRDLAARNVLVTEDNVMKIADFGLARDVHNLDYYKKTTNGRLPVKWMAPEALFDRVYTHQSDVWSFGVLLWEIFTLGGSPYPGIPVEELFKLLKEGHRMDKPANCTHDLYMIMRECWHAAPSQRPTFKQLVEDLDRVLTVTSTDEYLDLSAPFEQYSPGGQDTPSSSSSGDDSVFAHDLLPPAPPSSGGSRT
T4 sequence (P22455 22-802): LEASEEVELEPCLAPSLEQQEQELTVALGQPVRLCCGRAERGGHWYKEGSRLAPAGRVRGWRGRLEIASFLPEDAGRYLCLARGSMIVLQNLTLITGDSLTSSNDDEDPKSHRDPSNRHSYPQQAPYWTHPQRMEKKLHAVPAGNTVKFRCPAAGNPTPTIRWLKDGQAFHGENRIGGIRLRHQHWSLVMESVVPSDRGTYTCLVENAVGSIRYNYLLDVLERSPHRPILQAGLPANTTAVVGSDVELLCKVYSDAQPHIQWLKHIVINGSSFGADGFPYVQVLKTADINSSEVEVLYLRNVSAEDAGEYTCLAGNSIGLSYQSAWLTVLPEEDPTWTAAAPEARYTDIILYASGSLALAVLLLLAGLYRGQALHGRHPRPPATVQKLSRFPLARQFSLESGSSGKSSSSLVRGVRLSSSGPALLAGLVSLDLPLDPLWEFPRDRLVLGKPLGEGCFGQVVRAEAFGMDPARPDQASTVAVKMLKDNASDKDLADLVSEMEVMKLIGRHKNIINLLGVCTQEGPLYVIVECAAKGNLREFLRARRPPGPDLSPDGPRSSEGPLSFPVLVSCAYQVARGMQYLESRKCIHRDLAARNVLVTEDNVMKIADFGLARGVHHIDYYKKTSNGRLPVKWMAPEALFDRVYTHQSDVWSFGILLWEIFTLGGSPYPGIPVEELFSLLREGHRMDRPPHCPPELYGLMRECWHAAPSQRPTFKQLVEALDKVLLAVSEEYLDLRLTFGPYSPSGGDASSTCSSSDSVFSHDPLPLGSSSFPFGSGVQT
T1 sequence (P11362 22-822): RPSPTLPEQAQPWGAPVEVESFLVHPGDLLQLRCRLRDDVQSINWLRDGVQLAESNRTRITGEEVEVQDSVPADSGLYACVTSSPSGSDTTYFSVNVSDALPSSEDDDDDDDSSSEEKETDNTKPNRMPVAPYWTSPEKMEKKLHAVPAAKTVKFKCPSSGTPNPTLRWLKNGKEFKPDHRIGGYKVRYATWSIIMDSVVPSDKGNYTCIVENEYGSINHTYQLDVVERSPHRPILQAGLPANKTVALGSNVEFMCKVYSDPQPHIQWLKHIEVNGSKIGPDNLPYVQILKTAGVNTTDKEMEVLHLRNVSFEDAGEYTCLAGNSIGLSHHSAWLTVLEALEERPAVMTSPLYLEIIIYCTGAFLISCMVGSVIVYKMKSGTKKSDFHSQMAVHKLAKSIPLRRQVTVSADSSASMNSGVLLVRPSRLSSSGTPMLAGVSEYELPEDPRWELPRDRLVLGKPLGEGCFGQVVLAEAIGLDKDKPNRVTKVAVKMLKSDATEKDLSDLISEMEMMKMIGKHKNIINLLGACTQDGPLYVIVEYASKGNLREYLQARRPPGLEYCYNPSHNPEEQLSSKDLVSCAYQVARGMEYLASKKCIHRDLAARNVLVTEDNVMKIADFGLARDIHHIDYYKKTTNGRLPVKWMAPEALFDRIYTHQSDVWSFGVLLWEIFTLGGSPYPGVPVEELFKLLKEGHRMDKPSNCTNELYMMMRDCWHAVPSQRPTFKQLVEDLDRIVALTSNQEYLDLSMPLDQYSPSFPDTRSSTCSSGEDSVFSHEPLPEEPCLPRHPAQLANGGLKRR
T3 sequence (P21802 22-821): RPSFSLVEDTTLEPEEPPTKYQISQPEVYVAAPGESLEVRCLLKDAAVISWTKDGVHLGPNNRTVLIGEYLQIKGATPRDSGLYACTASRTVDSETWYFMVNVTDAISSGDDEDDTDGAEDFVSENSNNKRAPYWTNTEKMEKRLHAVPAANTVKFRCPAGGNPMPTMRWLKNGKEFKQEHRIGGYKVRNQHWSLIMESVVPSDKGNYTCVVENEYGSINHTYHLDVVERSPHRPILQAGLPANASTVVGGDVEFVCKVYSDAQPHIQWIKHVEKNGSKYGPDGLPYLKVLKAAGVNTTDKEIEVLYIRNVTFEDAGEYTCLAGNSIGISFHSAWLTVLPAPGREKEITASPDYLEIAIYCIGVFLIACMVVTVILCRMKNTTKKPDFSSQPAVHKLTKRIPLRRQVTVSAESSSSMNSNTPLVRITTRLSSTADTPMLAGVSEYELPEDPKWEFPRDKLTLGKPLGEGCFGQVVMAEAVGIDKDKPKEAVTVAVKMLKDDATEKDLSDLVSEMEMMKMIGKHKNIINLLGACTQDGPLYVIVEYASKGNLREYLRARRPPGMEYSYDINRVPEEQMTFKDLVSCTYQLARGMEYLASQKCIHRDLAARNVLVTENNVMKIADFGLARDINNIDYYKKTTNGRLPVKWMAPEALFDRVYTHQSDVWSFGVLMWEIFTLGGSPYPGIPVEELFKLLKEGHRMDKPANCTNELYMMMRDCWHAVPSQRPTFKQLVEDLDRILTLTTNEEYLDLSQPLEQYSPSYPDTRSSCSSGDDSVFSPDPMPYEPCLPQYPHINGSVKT
T5 sequence (P22607 23-806 V555M): as the sequence (P22607 23-806) above, with V533M counted along it

Turning to `C[C@@H](Oc1ccc2[nH]nc(-c3cnc(N4CC(N)(CC#N)C4)c(F)c3)c2c1)c1c(Cl)cncc1Cl` [Example 241, (R)-2-(3-amino-1-(5-(5-(1-(3,5-dichloropyridin-4-yl)ethoxy)-1H-indazol-3-yl)-3-fluoropyridin-2-yl)azetidin-3-yl)acetonitrile], the Kd in assay [1] and in assay [2] was 1 to 50 nM in each case. The IC50 in assay [3] lay in the range of 0.1 to 50 nM; in assay [4], 50 to 200 nM; in assay [5], 0.1 to 50 nM.
Consider `CNC(=O)C1(N)CN(c2ccc(-c3n[nH]c4ccc(O[C@H](C)c5c(Cl)cncc5Cl)cc34)nn2)C1` [Example 300, (R)-3-amino-1-(6-(5-(1-(3,5-dichloropyridin-4-yl)ethoxy)-1H-indazol-3-yl)pyridazin-3-yl)-N-methylazetidine-3-carboxamide], for which the Kd in assay [1] and in assay [2] was 1 to 50 nM each time. Moreover, the IC50 in assay [3] was 50 to 200 nM; in assay [4], > 1000 nM; in assay [5], 0.1 to 50 nM.
For `C[C@@H](Oc1ccc2[nH]nc(-c3ccc(N4CC(C)(NCCF)C4)nn3)c2c1)c1c(Cl)cncc1Cl` [Example 309, (R)-1-(6-(5-(1-(3,5-dichloropyridin-4-yl)ethoxy)-1H-indazol-3-yl)pyridazin-3-yl)-N-(2-fluoroethyl)-3-methylazetidin-3-amine], the Kd in assay [1] and in assay [2] was 1 to 50 nM throughout. Moreover, the IC50 in assay [4] was 50 to 200 nM; in assay [5], 0.1 to 50 nM.
On to `CCCC1(N)CN(c2ccc(-c3n[nH]c4ccc(O[C@H](C)c5c(Cl)cncc5Cl)cc34)nn2)C1` [Example 295, (R)-1-(6-(5-(1-(3,5-dichloropyridin-4-yl)ethoxy)-1H-indazol-3-yl)pyridazin-3-yl)-3-propylazetidin-3-amine], for which the Kd in assay [1] and in assay [2] was 1 to 50 nM in each case. For the same molecule, the IC50 in assay [3] was 50 to 200 nM; in assay [5], 0.1 to 50 nM.
Turning to `C[C@@H](Oc1ccc2[nH]nc(-c3cnc(N4CC(N)(c5ccnn5C)C4)c(F)c3)c2c1)c1c(Cl)cncc1Cl` [Example 392, (R)-1-(5-(5-(1-(3,5-dichloropyridin-4-yl)ethoxy)-1H-indazol-3-yl)-3-fluoropyridin-2-yl)-3-(1-methyl-1H-pyrazol-5-yl)azetidin-3-amine], the Kd in assay [1] (setting [9]) and in assay [2] (setting [9]) was 1 to 50 nM throughout. In addition, the IC50 fell in the range of 0.1 to 50 nM in assay [3], 50 to 200 nM in assay [4] and 0.1 to 50 nM in assay [5].
Consider `CCC1(N)CN(c2ccc(-c3n[nH]c4ccc(O[C@H](C)c5c(Cl)cncc5Cl)cc34)nn2)C1` [Example 299, (R)-1-(6-(5-(1-(3,5-Dichloropyridin-4-yl)ethoxy)-1H-indazol-3-yl)pyridazin-3-yl)-3-ethylazetidin-3-amine], for which the Kd in assay [1] and in assay [2] was 1 to 50 nM throughout. Moreover, the IC50 in assay [3] fell in the range of 50 to 200 nM; in assay [4], 50 to 200 nM; in assay [5], 0.1 to 50 nM.
On to `C[C@@H](Oc1ccc2[nH]nc(-c3ccc(N4CC(N)(Cc5ccn(C)n5)C4)nn3)c2c1)c1c(Cl)cncc1Cl` [Example 306, (R)-1-(6-(5-(1-(3,5-dichloropyridin-4-yl)ethoxy)-1H-indazol-3-yl)pyridazin-3-yl)-3-((1-methyl-1H-pyrazol-3-yl)methyl)azetidin-3-amine], for which the Kd in assay [1] and in assay [2] was 1 to 50 nM throughout. For the same molecule, the IC50 lay in the range of 50 to 200 nM in assay [3], 200 to 1000 nM in assay [4] and 0.1 to 50 nM in assay [5].
Turning to `C[C@H](O)CC1(N)CN(c2ncc(-c3n[nH]c4ccc(O[C@H](C)c5c(Cl)cncc5Cl)cc34)cc2F)C1` [Example 384, (S)-1-(3-amino-1-(5-(5-((R)-1-(3,5-dichloropyridin-4-yl)ethoxy)-1H-indazol-3-yl)-3-fluoropyridin-2-yl)azetidin-3-yl)propan-2-ol], the Kd in assay [1] (setting [9]) and in assay [2] (setting [9]) was 1 to 50 nM in each case. For the same molecule, the IC50 in assay [3] fell in the range of 50 to 200 nM; in assay [4] it was 50 to 200 nM; in assay [5], 0.1 to 50 nM.
In the case of `CC(C)OC(=O)C1(N)CN(c2ccc(-c3n[nH]c4ccc(O[C@H](C)c5c(Cl)cncc5Cl)cc34)nn2)C1` [Example 308, (R)-isopropyl 3-amino-1-(6-(5-(1-(3,5-dichloropyridin-4-yl)ethoxy)-1H-indazol-3-yl)pyridazin-3-yl)azetidine-3-carboxylate], the Kd in assay [1] and in assay [2] was 1 to 50 nM in each case. For the same molecule, the values for the IC50 in assay [3], in assay [4] and in assay [5] were 50 to 200 nM, 200 to 1000 nM and 0.1 to 50 nM, respectively.
As for `C[C@@H](Oc1ccc2[nH]nc(-c3cnc(N4CC(C)(NCCF)C4)c(F)c3)c2c1)c1c(Cl)cncc1Cl` [Example 303, (R)-1-(5-(5-(1-(3,5-dichloropyridin-4-yl)ethoxy)-1H-indazol-3-y1)-3-fluoropyridin-2-yl)-N-(2-fluoroethyl)-3-methylazetidin-3-amine], the Kd in assay [1] and in assay [2] was 1 to 50 nM throughout. Moreover, the results for the IC50 in assay [3], in assay [4] and in assay [5] were 0.1 to 50 nM, 50 to 200 nM and 0.1 to 50 nM, respectively.
For `COCC1(N)CN(c2ccc(-c3n[nH]c4ccc(O[C@H](C)c5c(Cl)cncc5Cl)cc34)nn2)C1` [Example 376, (R)-1-(6-(5-(1-(3,5-dichloropyridin-4-yl)ethoxy)-1H-indazol-3-yl)pyridazin-3-yl)-3-(methoxy-methyl)aze-tidin-3-amine], the Kd in assay [1] and in assay [2] was 1 to 50 nM in each case. In addition, the IC50 in assay [3] was in the range of 50 to 200 nM; in assay [4] it was 200 to 1000 nM; in assay [5] it was 0.1 to 50 nM.
For `C[C@@H](Oc1ccc2[nH]nc(-c3cnc(N4CC(C)(NCCC#N)C4)c(F)c3)c2c1)c1c(Cl)cncc1Cl` [Example 310, (R)-3-((1-(5-(5-(1-(3,5-dichloropyridin-4-yl)ethoxy)-1H-indazol-3-yl)-3-fluoropyridin-2-yl)-3-methylazetidin-3-yl)amino)propane-nitrile], the Kd in assay [1] and in assay [2] was 1 to 50 nM in each case. Also, the results for the IC50 in assay [4] and in assay [5] were 50 to 200 nM and 0.1 to 50 nM, respectively.
With `C[C@@H](Oc1ccc2[nH]nc(-c3ccc(N4CC(C)(CNS(C)(=O)=O)C4)nc3)c2c1)c1c(Cl)cncc1Cl` [Example 69, (R)-N-((1-(5-(5-(1-(3,5-dichloropyridin-4-yl)ethoxy)-1H-indazol-3-yl)pyridin-2-yl)-3-methylazetidin-3-yl)methyl)methane-sulfonamide], the Kd in assay [1], in assay [6], in assay [7], in assay [8] and in assay [2] was 1 to 50 nM in each case.
For `C[C@@H](Oc1ccc2[nH]nc(-c3cnc(N4CC(C)(N5CCCC5)C4)c(C#N)c3)c2c1F)c1c(Cl)cncc1Cl` [Example 322, (R)-5-(5-(1-(3,5-dichloropyridin-4-yl)ethoxy)-4-fluoro-1H-indazol-3-yl)-2-(3-methyl-3-(pyrrolidin-1-yl)azetidin-1-yl)nicotinonitrile], the Kd is > 1000 nM in assay [1]; > 1000 nM in assay [6]; 50 to 300 nM in assay [7]; 300 to 1000 nM in assay [8]; > 1000 nM in assay [2].
Regarding `CCNC1(C)CN(c2ncc(-c3n[nH]c4ccc(O[C@H](C)c5c(Cl)cnc(C)c5Cl)cc34)cc2C#N)C1` [Example 40, 5-[5-[(1R)-1-(3,5-dichloro-2-methyl-4-pyridyl)ethoxy]-1H-indazol-3-yl]-2-[3-(ethylamino)-3-methyl-azetidin-1-yl]pyridine-3-carbonitrile], the Kd in assay [1] was 50 to 300 nM; in assay [6], 50 to 300 nM; in assay [7], 1 to 50 nM; in assay [8], 1 to 50 nM; in assay [2], 1 to 50 nM.
